Consider 94 compounds from ChEMBL document CHEMBL3507680, “University of Dundee, Gates Library screen for HepG2 cell viability”.

The series in a line: Human HepG2 cell viability assay in 384 well format. The arrangement: dose 125 nL, time 70.5 hour; cytotoxicity at 70.5 h: concentration not given beside the values. The class given is toxicity, cell-based. The conditions noted are these: HepG2 cells, read-out: Inhibition.
Regarding `c1ncc2c(n1)CN(CC1CCCCO1)CC2` (centres undefined), the cytotoxicity at 70.5 h amounted to 6.75%.
For `COc1ccc(-c2nnc([C@H]3CCN(CC4CC4)C3)o2)cc1`, the cytotoxicity at 70.5 h came out at 2.78%.
With `CN1CCOC[C@H]1c1nc(-c2ccc(F)cc2F)c[nH]1`, the cytotoxicity at 70.5 h was -0.919%.
`c1cc(-c2c[nH]c([C@@H]3COCCN3C3CCOCC3)n2)ccn1`: the cytotoxicity at 70.5 h is -0.86%.
Turning to `CC1=C[C@@H](CC#N)[C@H](C(C)C)C[C@H]1CC(=O)N1CCN(C)CC1`, the cytotoxicity at 70.5 h was 13.1%.
For `COCCOc1ccnc(-c2noc([C@@H]3CCCN3CC(C)(C)C)n2)c1`, the cytotoxicity at 70.5 h was 2.83%.
Turning to `c1ccc2c(Cc3nnc([C@H]4CCN(C5CCCCC5)C4)o3)c[nH]c2c1`, the cytotoxicity at 70.5 h is -0.596%.
For `O=S(=O)(NC[C@H]1C[C@@H]2CCN1C[C@@H]2CN1CCCC1)c1ccc(Cl)cc1`, the cytotoxicity at 70.5 h came to 17%.
In the case of `Cn1cncc1-c1nnc([C@H]2CCN(CC(C)(C)C)C2)o1`, the cytotoxicity at 70.5 h was found to be 14%.
Regarding `CN1CC[C@H](c2nnc(-c3cncn3C)o2)C1`, the cytotoxicity at 70.5 h is -0.523%.
With `c1cncc(-c2nnc([C@H]3CCN(CC4CCCCC4)C3)o2)c1`, the cytotoxicity at 70.5 h was -6.55%.
For `Fc1ccc(OCc2nnc([C@H]3CCN(Cc4cccnc4)C3)o2)cc1`, the cytotoxicity at 70.5 h is -6.19%.
Turning to `CC(C)CCN1CC[C@H](c2nnc(Cc3c[nH]c4ccccc34)o2)C1`, the cytotoxicity at 70.5 h was 1.15%.
Turning to `c1ccc2c(Cc3nnc([C@H]4CCN(CC5CC5)C4)o3)c[nH]c2c1`, the cytotoxicity at 70.5 h was -0.383%.
For the compound `CN1C(=O)CO[C@H](c2ccc(NC(=O)Nc3ccccc3)cc2)[C@H]1CO`, the cytotoxicity at 70.5 h was -7.02%.
Under `F[C@@H]1CN(CC2CC2)C[C@@H]1OCc1nc2cnccc2[nH]1` stands -0.16%; under `F[C@@H]1CN(Cc2ccccc2)C[C@@H]1OCc1nc2cnccc2[nH]1`, 13.9%.
Consider `COc1ccccc1CN1C[C@@H](F)[C@@H](OCc2nc3ccccc3[nH]2)C1`, for which the cytotoxicity at 70.5 h was -0.935%.
Regarding `CCNC(=O)NC[C@H]1COCc2nc3cc(OC)ccc3n21`, the cytotoxicity at 70.5 h was -10.9%.
To `Cc1cccc2c1nc1n2[C@@H](CNC2CCCCC2)COC1` belongs 8.3%; to `O=C(C1CCOCC1)N1C[C@@H](F)[C@@H](OCc2nc3cc(F)ccc3[nH]2)C1`, -2.48%; to `Cc1cc2nc(CO[C@H]3CN(C4CCN(C)CC4)C[C@H]3F)[nH]c2cc1C`, -4.5%.
As to `O=C(NC[C@H]1COCc2nc3cc(F)ccc3n21)c1cccnc1`, the cytotoxicity at 70.5 h is -2.79%.
To `Cc1ccc2[nH]c(CO[C@H]3CN(c4ccc(C#N)cn4)C[C@H]3F)nc2c1` belongs -3.04%.
For the compound `CC(=O)N1CCC(N2CC[C@H](c3nc4cc(F)ccc4o3)C2)CC1`, the cytotoxicity at 70.5 h was 0.135%.
In the case of `COC(=O)[C@@H]1Cc2ncn(C)c2CN1S(=O)(=O)c1ccc(OC)cc1`, the cytotoxicity at 70.5 h is -3.58%.
Under `CCCn1cnc2c1CN(C(=O)c1ccc(F)cc1)[C@H](C(=O)OC)C2` stands -7.42%; under `CCCn1cnc2c1CN(S(=O)(=O)c1ccc(F)cc1)[C@H](C(=O)OC)C2`, 12.5%; under `CC[C@H]1CN2CC[C@H]1C[C@@H]2CNCc1ccc(N(C)C)cc1`, 26.4%.
On to `CN1CCN(C[C@H]2CN3CC[C@H]2C[C@@H]3CNC(=O)c2ccco2)CC1`, for which the cytotoxicity at 70.5 h is -6.36%.
To `CN1CCC(N2CCC[C@H]2c2nc(-c3cncnc3N)no2)CC1` belongs -0.402%; to `CC1=C[C@@H](CN2CCC(O)CC2)[C@H](C(C)C)C[C@H]1Cc1nnc(C)o1`, -4.6%.
Take `CCS(=O)(=O)c1ccc2oc([C@H]3CCN(Cc4cccnc4)C3)nc2c1`: the cytotoxicity at 70.5 h turned out to be 9.25%.
Under `COc1ccc(C2CC(=O)Nc3c2nc2n3CCCC2)cc1OC` (centres undefined) stands 8.63%; under `CSc1cccc(CN(C)C(=O)C2CC(=O)N(CCN(C)C)C2)c1` (centres undefined), 5.8%; under `CCCN(C)C(=O)c1ccc2c(c1)[nH]c(=O)n2CCOCC`, 13.7%.
Consider `CSCC[C@H](N)C(=O)NCc1cc2n(n1)CCCN(C(=O)C1CCC1)C2`, for which the cytotoxicity at 70.5 h is -4.43%.
For `CC(C)(O)C1CCN(C(=O)Nc2nc(-c3ccccc3)ns2)CC1`, the cytotoxicity at 70.5 h was -4.79%.
As to `CC(=O)N1CCCn2nc(CNS(=O)(=O)N3CCCCCC3)cc2C1`, the cytotoxicity at 70.5 h is -10.6%.
Consider `Fc1ccccc1-c1noc2c1CN(CC1CC1)CC2`, for which the cytotoxicity at 70.5 h is -3.89%.
For `COc1ccc(C(C(=O)O)N2CCCN(C3CCCC3)CC2)cc1OC` (centres undefined), the cytotoxicity at 70.5 h is 18.5%.
Consider `O=C(c1ccccn1)N1CCCC(c2nccn2Cc2ccncc2)C1` (centres undefined), for which the cytotoxicity at 70.5 h is -4.69%.
As for `O=C(CCc1cc2n(n1)CCCN(C(=O)c1cccnc1)C2)NC1CC1`, the cytotoxicity at 70.5 h was -2.07%.
To `CCn1ccnc1CN1CCC(CNC(=O)c2ccc(C)nc2)C1` (centres undefined) belongs -9.04%; to `O=C(c1cc(=O)[nH]c(=O)[nH]1)N1CCCCC1c1ccc(F)cc1` (centres undefined), -6.94%; to `COc1ccccc1OCc1cc(C(=O)N2CC(O)C2)n[nH]1`, -4.48%.
To `CNc1nc2c(c(C(=O)N3CCCC3)n1)CN(Cc1nccn1C)CC2` belongs -10.9%; to `CSCC(=O)N1C[C@H]2CC[C@@H]1CN(Cc1ccccc1)C2`, -3.17%; to `COCC1CCN(C(=O)c2cccc(S(=O)(=O)NCC3(C)COC3)c2)C1` (centres undefined), -3.93%.
Turning to `CC(C)NS(=O)(=O)c1cc(C(=O)O)cc(-c2ccccc2CN(C)C)c1`, the cytotoxicity at 70.5 h was -1.54%.
To `CC(C)c1ncc(S(C)(=O)=O)c(C2CCCNC2)n1` (centres undefined) belongs -7.47%; to `Clc1ccccc1C1(c2ccnc(-c3ncccn3)n2)CCNCC1`, -12.3%; to `CC(C(=O)N1CCCC1)N1CCC(c2nccn2Cc2cscn2)CC1` (centres undefined), -9.41%.
To `COC(=O)c1cc(OCC2CCC2)cc(C(=O)N[C@H]2CC[C@H](O)CC2)c1` belongs 15.3%; to `CCc1ncc2c(n1)CN(C(=O)COC)C2`, -4.18%; to `COc1cccc(CCC2CCCN(C(=O)c3n[nH]c4c3CCC4)C2)c1` (centres undefined), 0.453%.
To `CC(CN1CCCC1)C(=O)N1CCC(c2nccn2CC2CC2)CC1` (centres undefined) belongs 12.9%; to `Cc1ccsc1[C@@H]1CCN(C(=O)CCC(=O)N2CCCCCC2)C[C@H]1O`, 0.789%; to `CC(C)n1ccnc1C1CCN(C(=O)c2ccccc2)CC1`, 20.7%.
For `O=C(CCc1cc(O)no1)N1CCCC(COc2ccc(F)cc2)C1` (centres undefined), the cytotoxicity at 70.5 h was -3.78%.
Regarding `CCCN1CCN(C(=O)c2cnccn2)[C@H]2CS(=O)(=O)C[C@H]21`, the cytotoxicity at 70.5 h is -0.654%.
For `O=C(COCc1ccccc1)N1CCC(OCc2cccnc2)CC1`, the cytotoxicity at 70.5 h is -3.09%.
Under `Cc1cccnc1CNCC1(O)CCCN(CC2CCCCC2)C1=O` (centres undefined) stands -7.77%; under `CCc1cc(N[C@H]2CC[C@H](O)CC2)n2nc(C)c(C)c2n1`, -0.423%; under `Cc1ccc(OC2(C(=O)O)CCN(C(=O)c3ccc(F)cc3)CC2)cn1`, -7.2%.
On to `CC(C)c1ncc(CN2C[C@@H](CN3CCC(CO)CC3)[C@@H](CO)C2)cn1`, for which the cytotoxicity at 70.5 h is -6.31%.
Consider `Nc1nc2c(c(=O)[nH]1)CCN(C(=O)c1cccc3nccnc13)C2`, for which the cytotoxicity at 70.5 h was -13.2%.
For the compound `CC(=O)c1ccc(N2CCCC(CO)(CCOc3ccccc3)C2)nc1` (centres undefined), the cytotoxicity at 70.5 h is -13.1%.
Take `CC(C)c1nccn1CCCNC(=O)c1ccc(-c2cncnc2)nc1`: the cytotoxicity at 70.5 h is -9.84%.
To `NC(=O)c1cccc(CC2CCN(C(=O)CCCN3CCOCC3)C2)c1` (centres undefined) belongs -4.93%.
On to `Nc1nccc(NCc2cc3n(n2)CCCN(C2CCCCC2)C3)n1`, for which the cytotoxicity at 70.5 h was -1.68%.
Under `Cc1nc(CN2CCCC(Cn3cc(CCO)nn3)C2)c[nH]1` (centres undefined) stands -1.03%; under `Cc1ccccc1N1CCCN(C(=O)CCCS(N)(=O)=O)CC1`, 15.2%; under `Cc1nc2c(c(N3CC=CC3)n1)CCN(Cc1ccoc1)CC2`, -2.75%.
On to `Cc1nccn1CCC1CCCCN1Cc1ccncc1` (centres undefined), for which the cytotoxicity at 70.5 h was 3.75%.
In the case of `O=C(O)c1coc(COc2cccc(F)c2)n1`, the cytotoxicity at 70.5 h is -4.11%.
For `COc1ccc(F)c(CN2CCC3(CCC(=O)N(CC(N)=O)C3)CC2)c1`, the cytotoxicity at 70.5 h amounted to 5.8%.
Under `CN(C)C(=O)NCc1cc2n(n1)CCN(C[C@H]1[C@@H]3CNC[C@@H]31)C2` stands 15.7%.
With `CC(C)n1ccnc1C1CCN(Cc2ccc(Cl)s2)CC1`, the cytotoxicity at 70.5 h is -8.66%.
As for `CCC(=O)N1CC[C@@H](c2ccc3ccccc3c2)[C@H](O)C1`, the cytotoxicity at 70.5 h was -10.5%.
For `Cn1c(CN2CCOCC2)nnc1C1CCN(C(=O)C2CCCC2)CC1`, the cytotoxicity at 70.5 h turned out to be 2.41%.
Take `CCc1cnc(C)nc1NCCN1CCCCCC1`: the cytotoxicity at 70.5 h was -11.6%.
In the case of `Cc1ncccc1OCC(=O)N1CCN[C@H]2CS(=O)(=O)C[C@H]21`, the cytotoxicity at 70.5 h is -11.5%.
`CC(=O)N1CCN(c2cc(-c3ccccc3)nc3c(C)c(C)nn23)CC1`: the cytotoxicity at 70.5 h was determined as 0.357%.
As for `CC1CCN(S(=O)(=O)NCC2CCOc3ccccc3C2)CC1` (centres undefined), the cytotoxicity at 70.5 h was -7.61%.
Regarding `CC(C)C1CN(c2ncccn2)CCC(=O)N1Cc1ccc(F)cc1` (centres undefined), the cytotoxicity at 70.5 h was 1.56%.
As to `CC(=O)Nc1cccc(C(=O)Nc2cnc3n2CCCC3)c1`, the cytotoxicity at 70.5 h was -5.75%.
Under `COc1ccccc1CN(C)c1nccc(-c2cn(C)nc2C)n1` stands -8.86%; under `O=C1CC2(CCN(CC3CCOC3)CC2)CN1Cc1cc(F)cc(F)c1` (centres undefined), -6.96%; under `CC[C@@]1(O)CCN(C(=O)c2ccc(SC)cc2)C[C@H]1O`, 0.602%.
To `Cc1cccc2[nH]c(C3CCN(C(=O)c4ccnn4C)CC3)nc12` belongs 0.0948%; to `Cc1cc(=O)[nH]c(NCCNC(=O)C(c2ccc(F)cc2)N(C)C)n1` (centres undefined), 11.9%.
As for `CCC[C@@H]1CN(S(=O)(=O)c2ccc(C)c(F)c2)C[C@H]1N(C)C`, the cytotoxicity at 70.5 h turned out to be 0.773%.
Under `CCCOCCCNc1nccc(-c2cn(C)nc2C)n1` stands -4.32%.
